The values below come from patent EP0433163A2, “Process for the preparation of imidazobenzodiazepines and their salts” (ROUSSEL-UCLAF, priority 1989, dated 1991).

Assay [1] deals with récepteurs de benzodiazépine. In words: In vivo binding to benzodiazepine receptors, method of Goeders and Kuhar, Life Sciences (1985) 37 345. The source says:
La mesure de la fixation in vivo aux récepteurs de benzodiazépine est réalisée selon le procédé décrit par Goeders N.E. and Kuhar M J, Life Sciences (1985) 37 345.

For assay [2], the target named is récepteurs de benzodiazépine. Briefly: Benzodiazepine receptor binding (FRB), method of GB 2 128 989. To be noted: in vitro benzodiazepine receptor binding; type of value not stated; read-out: FRBnM. The source says:
La recherche de la fixation aux récepteurs de benzodiazépine (FRB) est réalisée par le procédé décrit dans GB 2 128 989.

`CCOC(=O)c1ncn2c1CN(C)C(=O)c1cccc(F)c1-2` [EXEMPLE 1D, 5,6-dihydro-10-fluoro-5-méthyl-6-oxo-4H-imidazo [1,5-a] [1,4] benzodiazépine-3-carboxylate d'éthyle]: the “Fixation in vivo DE50 mg/pk ip” value in assay [1] amounted to 21 mg/pk. The IC50 in assay [2] was found to be 410 nM.
Taken in the same sequence, the figures for `CCOC(=O)c1ncn2c1CN(C)C(=O)c1c(F)ccc(F)c1-2` [EXEMPLE 1E, 7,10-difluoro-5,6-dihydro-5-méthyl-6-oxo-4H-imidazo [1,5-a] [1,4] benzodiazépine-3-carboxylate d'éthyle] were 1,1 mg/pk and 174 nM.
Taken in the same sequence, the figures for `CCOC(=O)c1ncn2c1CN(C)C(=O)c1c(F)c(F)c(F)c(F)c1-2` [EXEMPLE 1G, 5,6-dihydro-5-méthyl-6-oxo-7,8,9,10-tétrafluoro-4H-imidazo [1,5-a] [1,4] benzodiazépine-3-carboxylate d'éthyle] were 100 mg/pk and 7500 nM.
Regarding `CN1Cc2c(C(=O)C3CC3)ncn2-c2cccc(Cl)c2C1=O` [EXEMPLE 3B, 7-chloro-5,6-dihydro-5-méthyl-6-oxo-4H-imidazo [1,5-a] [1,4] benzodiazépine-3-yl-cyclopropylméthanone], the IC50 in assay [2] came to 7.7 nM.
For the compound `CN1Cc2c(C(=O)C3CC3)ncn2-c2cccc(C(F)(F)F)c2C1=O` [EXEMPLE 3C, 5,6-dihydro-5-méthyl-6-oxo-7-trifluorométhyl-4H-imidazo [1,5-a] [1,4] benzodiazépine-3-yl-cyclopropylméthanone], the “Fixation in vivo DE50 mg/pk ip” value in assay [1] is on record as 0,05 mg/pk. Further, the IC50 in assay [2] came to 9.4 nM.
Take `CN1Cc2c(C(=O)C3CC3)ncn2-c2cccc(F)c2C1=O` [EXEMPLE 3D, 5,6-dihydro-7-fluoro-5-méthyl-6-oxo-4H-imidazo [1,5-a] [1,4] benzodiazépine-3-yl-cyclopropylméthanone]: the IC50 in assay [2] is 27 nM.
As to `O=C1NCc2c(C(=O)C3CC3)ncn2-c2ccccc21` [EXEMPLE 4, 5,6-dihydro-6-oxo-4H-imidazo [1,5-a] [1,4] benzodiazépine-3-yl-cyclopropylméthanone], in assay [2], the IC50 came to 582 nM.
For `CCOC(OCC)c1ncn2c1CN(C)C(=O)c1c(Cl)cccc1-2` [EXEMPLE 5, 7-chloro-3-diethoxyméthyl-5,6-dihydro-5-méthyl-4H-imidazo [1,5-a] [1,4] benzodiazépine-6(4H)-one], the “Fixation in vivo DE50 mg/pk ip” value in assay [1] was 2,1 mg/pk. Further, the IC50 in assay [2] turned out to be 339 nM.
With `CCOC(=O)c1ncn2c1CN(C)C(=O)c1cccc(N)c1-2` [EXEMPLE 6, 5,6-dihydro-10-amino-5-méthyl-6-oxo-4H-imidazo [1,5-a] [1,4] benzodiazépine-3-carboxylate d'éthyle], the IC50 in assay [2] turned out to be 966 nM.
